Assay results published in patent US4045564A, “Benzimidazole derivatives useful as gastric acid secretion inhibitors” (AB Hassle, priority 1974, dated 1977).

Columns and labels:
[1] = test system: pentagastrin induced gastric acid secretion; assay: Inhibition of pentagastrin induced gastric acid secretion in acute dog experiments with a modified perfusion technique (anaesthetized dog); assay type: in vivo; details: 10 mg/kg body weight, given into the duodenum in 0.5% Methocel suspension, pentagastrin 1-2 μg/kg
Procedure: The testing was performed in acute dog experiments with a modified perfusion technique.
The stomach of the anaesthetized dog was provided with one tube through the oesophagus for instillation of fluid and another tube via the ligated pylorus through duodenum for drainage of fluid. Saline was instilled in a volume of 5 ml/kg body weight, and the instillation fluid was changed every 15 minutes.
The samples collected were titrated to pH 7.0 with 0.04 N NaOH using a Radiometer automatic titrator, and the acid output per 15 minutes was calculated (collection periods).
Gastric acid secretion was induced by pentagastrin in 1-2 μg/kg.
The amount of active agent administered was 10 mg/kg body weight.

[2] = test system: gastric acid secretion induced with pentagastrin; assay: Duration of the effect in conscious dog provided with a ventricel fistula, gastric acid secretion induced with pentagastrin; assay type: in vivo
Procedure: The compounds of Examples 1, 3, and 9 have also been tested with regard to the duration of the effect obtained in conscious dog provided with a ventricel fistula, the gastric acid secretion being induced with pentagastrin. The amount of gastric acid secreted before the administration of active agent was determined using a titrator, whereupon the gastric acid secretion was determined using a titrator after administration. In the table below the inhibition in % of basic secretion has been given for two different dose levels.

Row | SMILES | % inhibition of the pentagastrin induced gastric acid secretion [1] [%] | % inhibition of gastric acid secretion ([2]; 1 mg/kg, 1 hr) [%] | % inhibition of gastric acid secretion ([2]; 1 mg/kg, 2 hrs) [%] | % inhibition of gastric acid secretion ([2]; 1 mg/kg, 3 hrs) [%] | % inhibition of gastric acid secretion ([2]; 2 mg/kg, 1 hr) [%] | % inhibition of gastric acid secretion ([2]; 2 mg/kg, 2 hrs) [%] | % inhibition of gastric acid secretion ([2]; 2 mg/kg, 3 hrs) [%]
1 | Cc1cccc2[nH]c(SCc3ccccn3)nc12 [Example 1, [2-pyridylmethylthio]-4-methyl-2-benzimidazole] | 89 | 20 | 25 | 25 | 50 | 60 | 65
2 | CCc1ccc2nc(SCc3ccccn3)[nH]c2c1 [Example 3, 2-[2-pyridylmethylthio]-(5-ethyl)-benzimidazole] | 86 | 20 | 25 | 25 | 50 | 60 | 65
3 | COc1ccc2[nH]c(SCc3ccccn3)nc2c1 [Example 5] | 40 |  |  |  |  |  | 
4 | CCOC(=O)c1ccc2[nH]c(SCc3ccccn3)nc2c1 [Example 9] | 70 | 20 | 25 | 25 | 50 | 60 | 65
5 | CC(=O)n1c(SCc2ccccn2)nc2ccccc21 [Example 16, 2-[2-pyridylmethylthio]-N-acetylbenzimidazole] | 80 |  |  |  |  |  | 
6 | COC(=O)n1c(SCc2ccccn2)nc2ccccc21 [Example 17, 2-[2-pyridylmethylthio]-N-methoxycarbonylbenzimidazole] | 76 |  |  |  |  |  | 
